Measurements taken from patent publication US4891370A, “Cephalosporin derivatives as anti-inflammatory agents” (Merck & Co., Inc., priority 1981, dated 1990).

Biological target: T1, Human Polymorphonuclear Leukocyte Elastase (Homo sapiens, UniProt P08246)
T1 construct: Crude extract of human polymorphonuclear leukocytes (PMN) containing elastase activity; endogenous in cells; host or cells: human polymorphonuclear leukocytes (crude extract)
T1 sequence (P08246 30-267): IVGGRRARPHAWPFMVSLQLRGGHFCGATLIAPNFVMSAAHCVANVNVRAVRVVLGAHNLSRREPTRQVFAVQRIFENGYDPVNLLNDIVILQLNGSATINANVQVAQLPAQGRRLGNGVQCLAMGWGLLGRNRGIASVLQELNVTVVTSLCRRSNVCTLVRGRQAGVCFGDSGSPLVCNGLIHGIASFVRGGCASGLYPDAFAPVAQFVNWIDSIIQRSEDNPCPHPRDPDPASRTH
Assay: Enzyme assay for inhibition of human PMN elastase via hydrolysis of Boc-AAPAN
Format: biochemical
Conditions: % decrease in ΔOD/min at 410 mμ within 2 minutes vs control, crude PMN extract; for inhibition at 50 µg/mL: Conc. of compound 50 μg/ml
Procedure: Protocol--Enzyme Assays for the Inhibition of Human Polymorphonuclear Leukocyte Elastase Via Hydrolysis of N-t-Boc-alanyl-alanyl-prolylanaline-pnitroanilide Reagents:
0.05M TES (N-tris[hydroxymethyl]methyl-2-amino-ethanesulfonic acid) Buffer, pH 7.5.
0.2 mM N-t-Boc-alanyl-alanyl-Prolyl-Alanine-p-nitroanilide (Boc-AAPAN).
To prepare substrate, the solid (m.w. 550) was first dissolved in 10.0 ml DMSO. Buffer at pH 7.5 was then added to a final volume of 100 ml.
Crude extract of human polymorphonuclear leukocytes (PMN) containing elastase activity.
Inhibitors (cephalosporins) to be tested dissolved in DMSO just before use.
To 1.0 ml of 0.2 mM Boc-AAPAN in a cuvette, 0.01-0.1 ml of DMSO with or without inhibitor was added. After mixing, a measurement was taken at 410 mμ to detect any spontaneous hydrolysis due to presence of test compound. 0.05 Milliliters of PMN extract was then added and the ΔOD/min at 410 mμ was measured and recorded. Beckman model 35 spectrophotometer was used.
The elastase activity in the crude PMN extract may vary from one preparation to another. A control of each new batch is run, and the volume added in the assay procedure is adjusted according to activity.

| SMILES | inhibition at 5 µg/mL (Conc. of compound 5 μg/ml) [%] | inhibition at 10 µg/mL (Conc. of compound 10 μg/ml) [%] | inhibition at 25 µg/mL (Conc. of compound 25 μg/ml) [%] | inhibition at 50 µg/mL [%] |
| --- | --- | --- | --- | --- |
| COC1(NC(=O)CSCC#N)C(=O)N2C(C(=O)OC3OC(=O)c4ccccc43)=C(CSc3nnnn3C)CSC21 (centres unmarked) |  |  |  | 41 |
| C=CCCOC(=O)C1=C(COC(N)=O)CSC2N1C(=O)C2(NC(=O)Cc1cccs1)OC (centres unmarked) |  |  |  | 50 |
| C=CCCOC(=O)C1=C(COC(C)=O)CSC2C(NC(=O)Cc3cccs3)C(=O)N12 (centres unmarked) |  |  |  | 56 |

The next lines start with the values.

| inhibition at 5 µg/mL (Conc. of compound 5 μg/ml) [%] | inhibition at 10 µg/mL (Conc. of compound 10 μg/ml) [%] | inhibition at 25 µg/mL (Conc. of compound 25 μg/ml) [%] | inhibition at 50 µg/mL [%] | SMILES |
| --- | --- | --- | --- | --- |
| 41 | 53 | 78 | 81 | CO[C@@]1(NC(=O)CSCC#N)C(=O)N2C(C(=O)OCOC(=O)C(C)(C)C)=C(CSc3nnnn3C)CSC21 (some centres unmarked) |
|  |  |  | 37 | COC1(NC(=O)Cc2cccs2)C(=O)N2C(C(=O)OCC(=O)COC(=O)C(C)(C)C)=C(COC(N)=O)CSC21 (centres unmarked) |
